In US20120130104A1, “CYCLOPROPENES-[…] TO CONTROL RIPENING PROCESSES OF AGRICULTURAL PRODUCTS” (priority 2005, published 2012):

System: tomatoes
Assay: Inhibitory effects of cyclopropene compounds on tomato ripening
Type: in vivo
Conditions: for Degree of ripening 0, number of tomatoes, Treated / Degree of ripening 1, number of tomatoes, Treated / Degree of ripening 2, number of tomatoes, Treated / Degree of ripening 3, number of tomatoes, Treated / Degree of ripening 4, number of tomatoes, Treated / Degree of ripening 5, number of tomatoes, Treated: scale 0 = no red color, 5 = completely ripened to dark red
Method: A cube (60×60×60 cm) was fabricated using a transparent acrylic plastic plate. The upper surface of the cube was equipped with two valves for air-injection and exhaust. Immediately prior to beginning of the red ripening stages, 20 blue tomatoes were harvested and divided into a treatment group and a control group which were then placed in acrylic plastic vessels, respectively. Among two plastic vessels, the treatment group was treated with 1-methylcyclopropene generated by injection of 3 mL diglyme solution containing 0.2 g of 1-methyl-1-(methanesulfonyloxy)-2-(trimethylsilyl)cyclopropane {synthesized in Section (2) of Example 5} into a column packed with 5 g of 15% Bu4NF coated Silica gel {prepared in Section (2) of Example 4} while maintaining the air flow at a flow rate of 2 L/min using a small compressor (see FIG. 3).
Tomatoes of the treatment group were treated for 1 hour according to the above-mentioned method and were then left for 12 hours while closing the valve. And then, tomatoes of the treatment group and tomatoes of the control group were observed on a progress of turning into red color. Based on the observation results, the ripening progress of tomatoes was evaluated.
Herein, the degree of ripening of tomatoes was classified on a scale of 0 to 5:
0: No red color similar to when completely green tomatoes were harvested 5: Completely ripened to dark red 1 to 4: Red color between the scale of 0 and 5
Therefore, the higher value represents the redder tomato color.

CC1=CC1 [1-methylcyclopropene]
inhibitory effects on the ripening process of tomatoes (1-methylcyclopropene generated by the device): significant inhibitory effects
Degree of ripening 0, number of tomatoes, Treated (Day 0): 10
Degree of ripening 1, number of tomatoes, Treated (Day 0): 0
Degree of ripening 2, number of tomatoes, Treated (Day 0): 0
Degree of ripening 3, number of tomatoes, Treated (Day 0): 0
Degree of ripening 4, number of tomatoes, Treated (Day 0): 0
Degree of ripening 5, number of tomatoes, Treated (Day 0): 0
Degree of ripening 0, number of tomatoes, Treated (Day 1): 10
Degree of ripening 1, number of tomatoes, Treated (Day 1): 0
Degree of ripening 2, number of tomatoes, Treated (Day 1): 0
Degree of ripening 3, number of tomatoes, Treated (Day 1): 0
Degree of ripening 4, number of tomatoes, Treated (Day 1): 0
Degree of ripening 5, number of tomatoes, Treated (Day 1): 0
Degree of ripening 0, number of tomatoes, Treated (Day 2): 10
Degree of ripening 1, number of tomatoes, Treated (Day 2): 0
Degree of ripening 2, number of tomatoes, Treated (Day 2): 0
Degree of ripening 3, number of tomatoes, Treated (Day 2): 0
Degree of ripening 4, number of tomatoes, Treated (Day 2): 0
Degree of ripening 5, number of tomatoes, Treated (Day 2): 0
Degree of ripening 0, number of tomatoes, Treated (Day 3): 9
Degree of ripening 1, number of tomatoes, Treated (Day 3): 1
Degree of ripening 2, number of tomatoes, Treated (Day 3): 0
Degree of ripening 3, number of tomatoes, Treated (Day 3): 0
Degree of ripening 4, number of tomatoes, Treated (Day 3): 0
Degree of ripening 5, number of tomatoes, Treated (Day 3): 0
Degree of ripening 0, number of tomatoes, Treated (Day 4): 8
Degree of ripening 1, number of tomatoes, Treated (Day 4): 1
Degree of ripening 2, number of tomatoes, Treated (Day 4): 1
Degree of ripening 3, number of tomatoes, Treated (Day 4): 0
Degree of ripening 4, number of tomatoes, Treated (Day 4): 0
Degree of ripening 5, number of tomatoes, Treated (Day 4): 0
Degree of ripening 0, number of tomatoes, Treated (Day 5): 8
Degree of ripening 1, number of tomatoes, Treated (Day 5): 1
Degree of ripening 2, number of tomatoes, Treated (Day 5): 0
Degree of ripening 3, number of tomatoes, Treated (Day 5): 1
Degree of ripening 4, number of tomatoes, Treated (Day 5): 0
Degree of ripening 5, number of tomatoes, Treated (Day 5): 0
Degree of ripening 0, number of tomatoes, Treated (Day 6): 6
Degree of ripening 1, number of tomatoes, Treated (Day 6): 2
Degree of ripening 2, number of tomatoes, Treated (Day 6): 1
Degree of ripening 3, number of tomatoes, Treated (Day 6): 0
Degree of ripening 4, number of tomatoes, Treated (Day 6): 1
Degree of ripening 5, number of tomatoes, Treated (Day 6): 0
Degree of ripening 0, number of tomatoes, Treated (Day 7): 6
Degree of ripening 1, number of tomatoes, Treated (Day 7): 2
Degree of ripening 2, number of tomatoes, Treated (Day 7): 1
Degree of ripening 3, number of tomatoes, Treated (Day 7): 0
Degree of ripening 4, number of tomatoes, Treated (Day 7): 0
Degree of ripening 5, number of tomatoes, Treated (Day 7): 1
Degree of ripening 0, number of tomatoes, Treated (Day 8): 5
Degree of ripening 1, number of tomatoes, Treated (Day 8): 2
Degree of ripening 2, number of tomatoes, Treated (Day 8): 1
Degree of ripening 3, number of tomatoes, Treated (Day 8): 1
Degree of ripening 4, number of tomatoes, Treated (Day 8): 0
Degree of ripening 5, number of tomatoes, Treated (Day 8): 1
Degree of ripening 0, number of tomatoes, Treated (Day 9): 2
Degree of ripening 1, number of tomatoes, Treated (Day 9): 3
Degree of ripening 2, number of tomatoes, Treated (Day 9): 2
Degree of ripening 3, number of tomatoes, Treated (Day 9): 1
Degree of ripening 4, number of tomatoes, Treated (Day 9): 1
Degree of ripening 5, number of tomatoes, Treated (Day 9): 1
Degree of ripening 0, number of tomatoes, Treated (Day 10): 1
Degree of ripening 1, number of tomatoes, Treated (Day 10): 1
Degree of ripening 2, number of tomatoes, Treated (Day 10): 3
Degree of ripening 3, number of tomatoes, Treated (Day 10): 2
Degree of ripening 4, number of tomatoes, Treated (Day 10): 1
Degree of ripening 5, number of tomatoes, Treated (Day 10): 2
full ripening of tomatoes of the treatment group (even after 10 days): most of them did not exhibit full ripening
time after which tomatoes of the treatment group began the ripening process (treatment group, control group began to ripen after 1 day): about 3 days
